Laboratory results as given in publication PMC10819888, “Benzimidazole-Based Derivatives as Apoptotic Antiproliferative Agents: Design, Synthesis, Docking, and Mechanistic Studies” (Molecules, 2024).

Key:
[1] = tested on: Non-Small Cell Lung Cancer subpanel; assay: NCI-60 five-dose assay, subpanel; format: cell-based, human; details: Non-Small Cell Lung Cancer
HOP-92 = assay: NCI-60 five-dose assay; format: cell-based, human; details: HOP-92, Non-Small Cell Lung Cancer
NCI-H522 = assay: NCI-60 five-dose assay; format: cell-based, human; details: NCI-H522, Non-Small Cell Lung Cancer
MOLT-4 = assay: NCI-60 five-dose assay; format: cell-based, human; details: MOLT-4, Leukemia
DU-145 = assay: NCI-60 five-dose assay; format: cell-based, human; details: DU-145, Prostate Cancer
BT-549 = assay: NCI-60 five-dose assay; format: cell-based, human; details: Homo sapiens, BT-549, Breast Cancer
NCI-H322M = assay: NCI-60 five-dose assay; format: cell-based, human; details: NCI-H322M, Non-Small Cell Lung Cancer
T-47D = assay: NCI-60 five-dose assay; format: cell-based, human; details: T-47D, Breast Cancer
Prostate Cancer subpanel = assay: NCI-60 five-dose assay, subpanel; format: cell-based, human; details: Prostate Cancer
HS 578T = assay: NCI-60 five-dose assay; format: cell-based, human; details: HS 578T, Breast Cancer
SK-MEL-2 = assay: NCI-60 five-dose assay; format: cell-based, human; details: SK-MEL-2, Melanoma
786-0 = assay: NCI-60 five-dose assay; format: cell-based, human; details: 786-0, Renal Cancer
COLO 205 = assay: NCI-60 five-dose assay; format: cell-based, human; details: COLO 205, Colon Cancer
U251 = assay: NCI-60 five-dose assay; format: cell-based, human; details: U251, CNS Cancer
KM12 = assay: NCI-60 five-dose assay; format: cell-based, human; details: KM12, Colon Cancer
SF-295 = assay: NCI-60 five-dose assay; format: cell-based, human; details: SF-295, CNS Cancer
PC-3 = assay: NCI-60 five-dose assay; format: cell-based, human; details: PC-3, Prostate Cancer
Breast Cancer subpanel = assay: NCI-60 five-dose assay, subpanel; format: cell-based, human; details: Breast Cancer
SF-268 = assay: NCI-60 five-dose assay; format: cell-based, human; details: SF-268, CNS Cancer
HL-60(TB) = assay: NCI-60 five-dose assay; format: cell-based, human; details: HL-60(TB), Leukemia
UACC-62 = assay: NCI-60 five-dose assay; format: cell-based, human; details: UACC-62, Melanoma
SR = assay: NCI-60 five-dose assay; format: cell-based, human; details: SR, Leukemia
SK-MEL-28 = assay: NCI-60 five-dose assay; format: cell-based, human; details: SK-MEL-28, Melanoma
UO-31 = assay: NCI-60 five-dose assay; format: cell-based, human; details: UO-31, Renal Cancer
UACC-257 = assay: NCI-60 five-dose assay; format: cell-based, human; details: UACC-257, Melanoma
[2] = Homo sapiens, average sensitivity of all subpanel cell lines, read-out: GI50 Subpanel MID b
[3] = Homo sapiens, read-out: GI50 Conc. per Cell Line
[4] = Homo sapiens, read-out: LC50 (the source's name)

Compound `CN(C)c1ccc(C=NNC(=O)c2ccc3[nH]c(-c4ccc(Cl)cc4)nc3c2)cc1` [Compound 4b, N′-(4-(Dimethylamino)benzylidene)-2-(4-chlorophenyl)-1H-benzimidazole-5-carbohydrazide] has a melting point of 283 to 285 °C.

Compound `O=C(NN=Cc1ccc(F)cc1)c1ccc2[nH]c(-c3ccc(Cl)cc3)nc2c1` [Compound 4d, N′-(4-Fluorobenzylidene)-2-(4-chlorophenyl)-1H-benzimidazole-5-carbohydrazide] has a melting point of 285 to 287 °C.

Compound `O=C(NN=Cc1ccc(Cl)cc1Cl)c1ccc2[nH]c(-c3ccc(Cl)cc3)nc2c1` [Compound 4f, N′-(2,4-Dichlorobenzylidene)-2-(4-chlorophenyl)-1H-benzimidazole-5-carbohydrazide] has a melting point of 294 to 297 °C.

With `COc1ccc(C=NNC(=O)c2ccc3[nH]c(-c4ccc(Cl)cc4)nc3c2)cc1` [Compound 4g, N′-(4-Methoxybenzylidene)-2-(4-chlorophenyl)-1H-benzimidazole-5-carbohydrazide] the GI50 [1, 2] was 2.71 µM, the “GI50 Selectivity Ratio (MID a/MID b)” value [1] was 0.93 and the TGI (HOP-92) was 4.11 µM. The LC50 (50% lethal concentration) (HOP-92; Homo sapiens) was 15.1 µM, the GI50 (HOP-92; [3]) was 1.52 µM and the GI50 (NCI-H522; [3]) was 7.6 µM. For the same compound, the CC50 (NCI-H522; [4]) was > 100 µM, the TGI (NCI-H522) was 81.50 µM and the GI50 (MOLT-4; [3]) was 4.53 µM. For the same compound, the CC50 (MOLT-4; [4]) was > 100 µM, the TGI (MOLT-4) was 30.40 µM and the TGI (DU-145) was 4.61 µM. It also gave a GI50 (DU-145; [3]) of 1.98 µM, a CC50 (DU-145; [4]) of 14 µM and a GI50 (BT-549; read-out: GI50 Conc. per Cell Line) of 3.36 µM. The CC50 (BT-549; read-out: LC50 (the source's name)) was > 100 µM, the GI50 (NCI-H322M; [3]) was 2.49 µM and the CC50 (NCI-H322M; [4]) was 55.4 µM. For the same compound, the TGI (NCI-H322M) was 7.20 µM, the GI50 (T-47D; Homo sapiens, T47D, read-out: GI50 Conc. per Cell Line) was 1.94 µM and the CC50 (T-47D; Homo sapiens, T47D, read-out: LC50 (the source's name)) was 30 µM. The TGI (T-47D) was 4.83 µM, the GI50 (Prostate Cancer subpanel; [2]) was 1.81 µM and the “GI50 Selectivity Ratio (MID a/MID b)” value (Prostate Cancer subpanel) was 1.39. The TGI (HS 578T) was 5.64 µM, the GI50 (HS 578T; [3]) was 2.3 µM and the CC50 (HS 578T; [4]) was > 100 µM. The LC50 (SK-MEL-2; Homo sapiens) was 69.7 µM, the GI50 (SK-MEL-2; [3]) was 3.59 µM and the TGI (SK-MEL-2) was 13.80 µM. The TGI (786-0) was 3.67 µM, the GI50 (786-0; [3]) was 1.93 µM and the CC50 (786-0; [4]) was 6.98 µM. The TGI (COLO 205) was 5.43 µM, the GI50 (COLO 205; [3]) was 1.94 µM and the CC50 (COLO 205; [4]) was 33 µM. For the same compound, the GI50 (U251; Homo sapiens, U-251, read-out: GI50 Conc. per Cell Line) was 2.43 µM, the CC50 (U251; Homo sapiens, U-251, read-out: LC50 (the source's name)) was 30.4 µM and the TGI (U251) was 5.22 µM. The GI50 (KM12; [3]) was 3.03 µM, the CC50 (KM12; [4]) was > 100 µM and the TGI (KM12) was 9.58 µM. It also gave a GI50 (SF-295; [3]) of 2.23 µM, a CC50 (SF-295; [4]) of 15 µM and a TGI (SF-295) of 5.05 µM. The LC50 (PC-3; Homo sapiens) was 8.55 µM, the GI50 (PC-3; [3]) was 1.65 µM and the TGI (PC-3) was 3.76 µM. For the same compound, the “GI50 Selectivity Ratio (MID a/MID b)” value (Breast Cancer subpanel) was 1.12, the GI50 (Breast Cancer subpanel; [2]) was 2.24 µM and the GI50 (SF-268; [3]) was 2.09 µM. For the same compound, the CC50 (SF-268; [4]) was 20.8 µM, the TGI (SF-268) was 5.10 µM and the TGI (HL-60(TB)) was >100 µM. The GI50 (HL-60(TB); [3]) was 1.3 µM, the CC50 (HL-60(TB); [4]) was > 100 µM and the GI50 (UACC-62; [3]) was 1.94 µM. The CC50 (UACC-62; [4]) was 10.9 µM, the TGI (UACC-62) was 4.47 µM and the GI50 (SR; [3]) was 2.87 µM. The CC50 (SR; [4]) was > 100 µM, the TGI (SR) was 15.40 µM and the GI50 (SK-MEL-28; [3]) was 1.79 µM. The CC50 (SK-MEL-28; [4]) was 6.35 µM, the TGI (SK-MEL-28) was 3.37 µM and the GI50 (UO-31; [3]) was 1.86 µM. It also gave a CC50 (UO-31; [4]) of 25.7 µM, a TGI (UO-31) of 6.38 µM and a GI50 (UACC-257; [3]) of 3.27 µM. For the same compound, the CC50 (UACC-257; [4]) was 60 µM and the TGI (UACC-257) was 10.10 µM.

In the case of `O=C(N/N=C/c1ccc(O)cc1)c1ccc2[nH]c(-c3ccc(Cl)cc3)nc2c1` [Compound 4i, N′-(4-Hydroxybenzylidene)-2-(4-chlorophenyl)-1H-benzimidazole-5-carbohydrazide], the melting point is reported as 263 to 265 °C.

With `CCn1c(-c2ccc3[nH]c(-c4ccc(Cl)cc4)nc3c2)n[nH]c1=S` [Compound 6, 4-ethyl-5-(2-(4-chlorophenyl)-1H-benzimidazol-5-yl)-2,4-dihydro-3H-1,2,4triazole-3-thione] the melting point was 292 to 294 °C.
